Results taken from patent US6358982B1, “Heterocyclyl sulphonamide derivatives” (Eli Lilly and Company, priority 1998, dated 2002).

Molecular target: T1, human GluR4B receptor (Homo sapiens, UniProt P48058)
T1 construct: expressed in transfected cells
Assay: potentiation of agonist-induced excitability of human GluR4B receptor expressed in HEK 293 cells (Fluo-3 calcium fluorescence)
Format: cell-based
Conditions: human GluR4B expressed in HEK 293 cells
Source text: The ability of compounds of formula I to potentiate glutamate receptor-mediated response may be determined using fluorescent calcium indicator dyes (Molecular Probes, Eugene, Oreg., Fluo-3) and by measuring glutamate-evoked efflux of calcium into GluR4 transfected HEK293 cells, as described in more detail below.
In one test, 96 well plates containing confluent monolayers of HEK cells stably expressing human GluR4B (obtained as described in European Patent Application Publication Number EP-A1-583917) are prepared. The tissue culture medium in the wells is then discarded, and the wells are each washed once with 200 μl of buffer (glucose, 10 mM, sodium chloride, 138 mM, magnesium chloride, 1 mM, potassium chloride, 5 mM, calcium chloride, 5 mM, N-[2-hydroxyethyl]-piperazine-N-[2-ethanesulfonic acid], 10 mM, to pH 7.1 to 7.3). […]
Each test is then performed as follows. […] A second fluorescent reading is taken after 5 minutes incubation. 15 μl of 400 μM glutamate solution is then added to each well (final glutamate concentration […]), and a third reading is taken. The activities of test compounds and cyclothiazide solutions are determined by subtracting the second from the third reading (fluorescence due to addition of glutamate in the presence or absence of test compound or cyclothiazide) and are expressed relative to enhance fluorescence produced by 100 μM cyclothiazide.

T1 sequence (P48058 21-902): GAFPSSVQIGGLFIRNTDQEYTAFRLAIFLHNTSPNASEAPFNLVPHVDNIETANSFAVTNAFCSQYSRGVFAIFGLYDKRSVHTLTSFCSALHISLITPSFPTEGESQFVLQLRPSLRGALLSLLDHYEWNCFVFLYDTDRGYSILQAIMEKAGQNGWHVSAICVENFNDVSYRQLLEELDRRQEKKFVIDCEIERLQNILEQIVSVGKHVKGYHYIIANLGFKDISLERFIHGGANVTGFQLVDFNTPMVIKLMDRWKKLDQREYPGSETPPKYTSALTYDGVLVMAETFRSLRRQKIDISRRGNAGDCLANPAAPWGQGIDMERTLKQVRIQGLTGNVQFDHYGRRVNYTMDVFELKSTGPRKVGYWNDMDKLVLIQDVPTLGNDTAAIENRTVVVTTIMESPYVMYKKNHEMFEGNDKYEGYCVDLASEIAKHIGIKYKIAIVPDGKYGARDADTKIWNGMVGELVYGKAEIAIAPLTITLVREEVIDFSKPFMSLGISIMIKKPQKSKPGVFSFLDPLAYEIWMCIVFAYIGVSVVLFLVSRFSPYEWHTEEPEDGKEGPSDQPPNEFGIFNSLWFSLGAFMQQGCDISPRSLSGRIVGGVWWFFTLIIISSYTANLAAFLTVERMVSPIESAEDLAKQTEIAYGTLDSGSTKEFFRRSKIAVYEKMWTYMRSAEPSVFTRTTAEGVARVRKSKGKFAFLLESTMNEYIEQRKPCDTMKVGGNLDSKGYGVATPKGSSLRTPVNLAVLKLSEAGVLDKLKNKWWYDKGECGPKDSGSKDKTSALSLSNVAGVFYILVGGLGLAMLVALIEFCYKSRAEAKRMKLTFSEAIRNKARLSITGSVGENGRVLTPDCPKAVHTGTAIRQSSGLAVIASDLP

NS(=O)(=O)c1cc2c(cc1Cl)NC(C1CC3C=CC1C3)NS2(=O)=O (stereo not shown) [cyclothiazide]
potentiation of agonist-induced excitability of human GluR4B receptor: potentiate
